{
  "source": "patent US12109190B2",
  "about": "“Urolithins as immune response enhancers” (Amazentis SA, priority 2018, dated 2024)",
  "key": {"[1]": {"system": "haematopoietic stem cells (HSCs) and multipotent progenitor cells (MPPs)", "test": "Flow cytometry of bone marrow haematopoietic progenitor cell populations from aged mice fed Urolithin A", "assay_type": "in vivo", "conditions": "aged C57BL/6J mice, 50 mg/kg/day in diet, 34 weeks; for HSC population as % of total bone marrow cells and number of cells: FIG. 4, versus untreated aged animals, cell number p<0.05, 50 mg/kg/day", "procedure": "To determine if Urolithin A treatment had any effects on stem cell populations, haematopoietic stem cells, (HSCs) and multipotent progenitor cells (MPPs) were isolated from aged C57BL/6J mice that received either a standard rodent diet or a diet containing Urolithin A mixed with food to reach a dosing of 50 mg/kg/day delivered to mice. Mice were treated with urolithin A starting at 16 months of age and received 34 weeks of treatment. At end of the treatment period mice were sacrificed and bone marrow collected from the femur and tibia bones. Single-cell suspensions were made following cell extraction from the bones after removal of muscle and connective tissue.\nTo determine the effects of Urolithin A treatment on the different progenitor cells of the haematopoietic system, the number and percentage of each progenitor cell type was determined using flow cytometry. Flow cytometry allowed the selection and quantification of cells with different patterns of protein expression on their cell surface. Using labeled monoclonal antibodies, it was possible to identify the different progenitor cell population based on their cell surface protein expression. To isolate the undifferentiated cells which would contain the progenitor population, bone marrow cells were stained with a cocktail of monoclonal antibodies against the cell surface proteins specific to the more differentiated cell types. The antibodies to these proteins, also known as lineage markers were CD3e (17A2), CD4 (GK1.5), CD8a (53.6.7), CD11b (M1/70), CD19 (1D3), Gr1 (RB6.8C5), Ter119 and NK1.1 (PK136), these were conjugated to Alexa 647 [Alexa Fluor 647 dye is a bright, far-red—fluorescent dye used as a label in, for example, fluorescence microscopy]. To discriminate the various lineage progenitor cell populations the isolated bone marrow cells were stained with monoclonal antibodies against the following progenitor cell surface protein markers containing the following labels CD34 (RAM 34)-FITC; CD135 (Flt3 A2F10)-PE; CD48 (HM48.1)-biotin+PE Texas Red Streptavidin; CD117 (ckit 2B8) PerCp-Cy5.5; Sca1 (D7)-PE-Cy7. Cell analysis of the stained cells was performed on a Becton Dickson Flow cytometer (Franklin Lake, NJ, USA) and collected data was analyzed using Flowjo™ software (an analysis platform for single-cell flow cytometry analysis). Bone marrow was isolated from three mice receiving Urolithin A treatment, and six control untreated mice.\nTo identify the different populations of haematopoietic progenitor cells present in the isolated bone marrow cells, the isolated bone marrow cells were selected based on their cell surface marker combinations. A so-called gating strategy was employed, in which a particular population of cells is selected (gated) based on the pattern of cell surface protein expression, and then this sub-selected population then is further examined for its cell surface protein expression. […] Uncommitted progenitor cells were examined by selecting cells that were negative for the cell surface proteins found on differentiated cells (lineage markers) described above (FIG. 2B). From this population of lineage negative cells, cells were selected that stained positive for the cells surface markers, CD117 (c-kit) and Sca1. This subpopulation of lineage negative, CD117 & Sca1 positive cells (LKS cells) contain the progenitor stem cells (FIG. 2C).\nLKS cells can be further divided into four different progenitor cell types, HSC (LT-HSC), MPP 1 (ST-HSC), MPP2, and MPP3 or LMPP with decreasing levels of quiescence (FIG. 1B). The most quiescent and non-committed cells are the HSC cells. To differentiate between these cell populations in the LKS cells, Cells were examined for their expression of CD150 and CD48. The most primitive quiescent cell populations, HSC+MPP1, are positive for the cell surface marker for CD150 and negative for the cell surface marker CD48. […]"}, "[2]": {"system": "IL-10 / IL-12 (p40)", "test": "Plasma cytokines (MILLIPLEX panel) in aged mice after Urolithin A in diet", "assay_type": "in vivo", "conditions": "22 months old male C57BL/6J mice, 50 mg/kg/day in diet, 6 weeks; FIG. 6; p<0.05", "procedure": "Urolithin A is admixed to AIN-93G Growing Rodent Diet (Research Diet, New Brunswick, NJ, USA) at a concentration of 0.5 g/per kg of diet, corresponding to a dose of 50 mg/kg/dy. Pellets with or without UA are given to 22 months old male C57BL/6J mice (Janvier, Saint Berthevin, France) for 6 weeks. A total of 32 mice are housed individually and randomized to 16 animals per group according to their exercise capacity. Animals who die spontaneously during the experiments are excluded from the calculations. These criteria were established before starting the experiments. Animals are euthanized after 6 weeks of treatment after an overnight fasting before collecting blood samples by the vena cava. Blood samples are centrifuged for 15 minutes at 1,500×g, and the plasma supernatant is transferred into a clean tube. Plasma is analyzed for cytokines using the MILLIPLEX MAP Mouse Cytokine/Chemokine Magnetic Bead Panel (MCYTOMAG-70K).\nIL-10 is an important anti-inflammatory cytokine (Fiorentino D F, et al., IL-10 inhibits cytokine production by activated macrophages. J Immunol. 1991 Dec. 1; 147(11):3815-22; Fiorentino D F et al., IL-10 acts on the antigen-presenting cell to inhibit cytokine production by Th1 cells. J Immunol. 1991 May 15; 146(10):3444-51). […]"}},
  "data": [
    {"smiles": "O=c1oc2cc(O)ccc2c2ccc(O)cc12", "note": "[Urolithin A]", "values": [
      {"measurement": "HSC population as % of total bone marrow cells and number of cells", "setting": "[1]", "result": "increase"},
      {"measurement": "HSC population as % of total bone marrow cells and number of cells", "setting": "[1]; listed as urolithin A", "result": "significant increase"},
      {"measurement": "LSK (c-Kit+, Lin-, Sca1+) progenitor cells as % of lineage negative cells", "setting": "[1]; bone marrow, example plot FIG. 2C, control 3.16%", "result": 5.27, "unit": "%"},
      {"measurement": "% of LSK cells that are HSC+MPP1 (CD150+, CD48-)", "setting": "[1]; example animal FIG. 3, untreated 53.1%", "result": 61.7, "unit": "%"},
      {"measurement": "% of HSC+MPP1 cells that are HSC (CD34-)", "setting": "[1]; example animal FIG. 3, untreated 73.8%", "result": 81.7, "unit": "%"},
      {"measurement": "HSC + MPP1, % of undifferentiated cells (LSK cells)", "setting": "[1]; group value n=3, untreated 40.75 ± 7.42%, p < 0.01", "result": "58.97 ± 11.30", "unit": "%"},
      {"measurement": "ratio of IL-10 over IL-12 (p40) in plasma", "setting": "[2]", "result": "significant increase"}
    ]}
  ]
}
